Literature values as cited in US20080188553A1, “NOVEL ASCORBIC ACID COMPOUNDS, METHODS OF SYNTHESIS AND APPLICATION USE THEREOF” (priority 2007, published 2008).

Settings: relative to ascorbic acid; test conditions not given

Q: With `O=C1O[C@H]([C@@H](O)CO)C(O)=C1OS(=O)(=O)O` [L-ascorbate 2-sulphate] as the molecule, how does the “more stable than ascorbic acid” value read?
A: Its value is 20 times.
